Reference: patent publication US4216209A, “Tripeptide angiotensin converting enzyme inhibitors” (American Home Products Corporation, priority 1979, dated 1980)
Non-standard residues stand in square brackets, D forms with d. Residues, ends and D or L forms follow the SMILES beside them. Mpa = O=C(O)CCS

Tested on: spontaneously hypertensive rat (SHR)
Assay: Antihypertensive test in conscious spontaneously hypertensive rats: arterial BP and pressor/depressor responses to i.v. angiotensin I and bradykinin after oral dosing
Type: in vivo
Conditions: male SHR, 50 mg/kg of body weight
Excerpt: Male SHR of the Okamoto-Aoki strain (purchased from Charles River Lakeview, Boston, Mass.) ranging in weight between 280 and 370 g are anesthetized with diethyl ether. Their left femoral arteries and veins are cannulated with polyethylene tubing of the appropriate size. Each animal is then placed in a rubber mesh jacket which is secured with four towel clamps. The animal is suspended via the towel clamps from a bar and allowed to recover from the anesthesia. The arterial cannula is connected to a Statham pressure transducer (Model P23, Gould Statham Instruments, Hato Rey, Porto Rico) which, in turn, is attached to a polygraph for recording arterial blood pressure (BP) and pulse rate.
When the BP has stabilized, the intravenous injection of the agonists, angiotensin I (AI) or bradykinin (B) is initiated. Each of the agonists is prepared daily from refrigerated stock solution (using distilled water as the diluent), and injected in a volume of 1 ml/kg (using physiological saline as the diluent) at the following doses: AI, 0.125 μg/kg and B, 5 μg/kg.
Enough time is allowed for the BP to return to preinjection levels before the next agonist is given. A dose of the compound to be tested is given orally seven to ten minutes after the injection of the last agonist. Four rats are used and the test compound is given by gastric gavage in a volume of 5 ml/kg of body weight. Heart rate and BP are measured at 5, 10, 15, 30, 45 and 60 minutes and at hourly intervals thereafter for a period of at least four hours after drug administration. At one and two hours after the test compound has been given, AI and B are injected again at the same concentration and in the same order as during the control period.

CC(C)C[C@H](NC(=O)[C@H](Cc1c[nH]cn1)NC(=O)[C@@H]1CCCN1C(=O)CCS)C(=O)O [N-[N-[1-(3-Mercapto-1-oxopropyl)prolyl]histidyl]leucine] ([Mpa]PHL-OH)
decrease in mean arterial BP (oral (gastric gavage), measured two hours after administration): 8% | reduction in angiotensin I response on BP (oral, angiotensin I 0.125 μg/kg i.v.): 61% | potentiation of bradykinin response (oral, bradykinin 5 μg/kg i.v.): 564%
